The source of these data is patent US10590106B2, “Certain chemical entities, compositions, and methods” (NeuPharma, Inc., priority 2012, dated 2020).

A word on the inhibition: it is the relative decrease from the control value, in per cent. Broadly, the IC50 is the concentration that inhibits the measured activity by half. Read a low IC50 as greater potency in that assay.

One experiment has as its target BRAF (Homo sapiens (Human), UniProt P15056). Kind of experiment: Inhibitory activity against kinase BRAF, Z'-LYTE method (Invitrogen). The format is biochemical. The following applies: 1 μM compound. As for the experimental part: Inhibitory activities Inhibitory activities of compounds against BRAF, and BRAF V600E were measured by Invitrogen using Z′-LYTE® Method as briefly described in the following. 4× Test compounds are dissolved in 1% DMSO. […] ATP solutions are diluted to a 4×ATP working concentration in Kinase Buffer (50 mM HEPES pH 7.5, 0.01% BRIJ-35, 10 mM MgCl2, 1 mM EGTA). Reaction started by 30-second shaking of mixture consisting of 2.5 μL 4× test compound, […] and 2.5 μL 4×ATP Solution on Bar-coded Corning, low volume NBS, black 384-well plate (Corning Cat. #3676). Then the mixture was incubated for 60-minute at room temperature for the kinase reaction, followed by addition of 5 μL of a 1:1024 dilution of development reagent A and 30-second plate shake. The mixture was then incubated for another 60-minute at room temperature for development reaction. Fluorescence was read by plate reader. IC50 was calculated by plotting the concentration of compound vs the percentage of inhibition in treated wells using GraphPad Prism 5.
Table 2 and 3 show % inhibition at 1 μM of several compounds of the invention against BRAF and BRAF V600E, respectively, using Z′-LYTE® method.

For the next experiment, the target named is KDR (VEGFR2) (Homo sapiens (Human), UniProt P35968). Kind of experiment: Inhibitory activity against kinase KDR, Z'-LYTE method (Invitrogen). As to conditions: for inhibition at 1 µM: 1 μM compound, read-out: Inhibition (% inhibition at 1 μM) against KDR. It is filed as biochemical. The method, boiled down: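 Human KDR (VEGFR2) kinase inhibition was measured with Invitrogen's Z′-LYTE® method. A 2× mixture of KDR and Tyr 01 peptide is made in 50 mM HEPES pH 7.5, 0.01% BRIJ-35, 10 mM MgCl2, 1 mM EGTA. Each 10 μL reaction holds 0.5-11.7 ng enzyme and 2 μM Tyr 01. It incubates for 1 hour, then 5 μL of Development Reagent B diluted 1:256 is added.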
KDR (VEGFR2), sequence (P35968 20-1356): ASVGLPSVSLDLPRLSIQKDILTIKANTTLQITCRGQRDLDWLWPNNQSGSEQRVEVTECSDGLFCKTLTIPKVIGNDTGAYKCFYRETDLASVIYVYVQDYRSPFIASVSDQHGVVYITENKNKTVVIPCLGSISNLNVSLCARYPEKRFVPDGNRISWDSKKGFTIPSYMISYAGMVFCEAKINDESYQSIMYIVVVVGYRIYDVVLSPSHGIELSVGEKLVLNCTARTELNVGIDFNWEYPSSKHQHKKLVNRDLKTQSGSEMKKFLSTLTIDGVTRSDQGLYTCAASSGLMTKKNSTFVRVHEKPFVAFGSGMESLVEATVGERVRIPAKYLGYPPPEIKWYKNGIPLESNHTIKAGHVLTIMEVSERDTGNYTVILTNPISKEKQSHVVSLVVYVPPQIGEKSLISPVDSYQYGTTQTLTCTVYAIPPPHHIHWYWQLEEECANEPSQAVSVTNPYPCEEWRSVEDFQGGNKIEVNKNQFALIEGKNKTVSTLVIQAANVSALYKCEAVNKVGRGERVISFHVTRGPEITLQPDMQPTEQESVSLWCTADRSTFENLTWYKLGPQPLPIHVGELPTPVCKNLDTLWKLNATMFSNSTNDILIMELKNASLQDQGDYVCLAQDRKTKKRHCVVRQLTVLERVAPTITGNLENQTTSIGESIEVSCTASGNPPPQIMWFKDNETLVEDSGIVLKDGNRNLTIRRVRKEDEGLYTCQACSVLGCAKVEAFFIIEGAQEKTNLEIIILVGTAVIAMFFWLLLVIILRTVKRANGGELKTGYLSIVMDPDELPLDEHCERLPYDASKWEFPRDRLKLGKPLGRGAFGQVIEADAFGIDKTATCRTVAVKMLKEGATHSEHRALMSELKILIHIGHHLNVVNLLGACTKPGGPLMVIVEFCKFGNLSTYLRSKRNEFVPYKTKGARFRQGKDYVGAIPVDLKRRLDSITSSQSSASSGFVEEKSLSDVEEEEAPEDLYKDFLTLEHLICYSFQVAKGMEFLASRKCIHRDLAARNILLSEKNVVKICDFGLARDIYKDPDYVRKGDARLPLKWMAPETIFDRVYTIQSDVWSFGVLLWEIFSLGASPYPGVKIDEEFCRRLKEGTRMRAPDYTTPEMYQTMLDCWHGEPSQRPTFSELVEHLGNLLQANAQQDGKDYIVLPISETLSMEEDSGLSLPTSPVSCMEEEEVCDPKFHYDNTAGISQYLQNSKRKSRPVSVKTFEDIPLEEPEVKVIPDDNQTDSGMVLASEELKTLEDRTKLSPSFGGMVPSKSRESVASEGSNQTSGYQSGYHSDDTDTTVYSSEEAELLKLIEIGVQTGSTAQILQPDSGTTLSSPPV

The next experiment deals with BRAF V600E (Homo sapiens (Human), UniProt P15056, V600E). Kind of experiment: Inhibitory activity against kinase BRAF V600E, Z'-LYTE method (Invitrogen). The format is biochemical. The following applies: for inhibition at 1 µM: 1 μM compound, read-out: Inhibition (% inhibition at 1 μM) against BRAF V600E. The method, boiled down:
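FRET-based Z′-LYTE peptide-phosphorylation assay in 50 mM HEPES pH 7.5, 0.01% BRIJ-35, 10 mM MgCl2, 1 mM EGTA; kinase reaction 60 min at room temperature, then 60 min development before fluorescence read. IC50 from concentration vs % inhibition; single-point % inhibition tested at 1 μM.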

The subject of the next experiment is A549 cells. Kind of experiment: Inhibition of cancer cell growth, MTT or MTS assay, A549. It is filed as cell-based. The following applies: Homo sapiens, 72 h incubation. The method, boiled down: (§1)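 Cells in RPMI 1640 with 10% FBS were seeded at ~2000 (A375) or 4000 (A549, Colo205) per well, grown 24 h, then exposed to compound 72 h at 1% final DMSO. Read-out by MTT (570 nm) or MTS (490 nm). IC50 from concentration vs percent inhibition, triplicates.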

A further experiment concerns A375 cells. Kind of experiment: Inhibition of cancer cell growth, MTT or MTS assay, A375. The following applies: Homo sapiens, A-375; 72 h incubation. It is filed as cell-based. The method, boiled down:
as §1

BRAF, sequence (P15056 whole entry): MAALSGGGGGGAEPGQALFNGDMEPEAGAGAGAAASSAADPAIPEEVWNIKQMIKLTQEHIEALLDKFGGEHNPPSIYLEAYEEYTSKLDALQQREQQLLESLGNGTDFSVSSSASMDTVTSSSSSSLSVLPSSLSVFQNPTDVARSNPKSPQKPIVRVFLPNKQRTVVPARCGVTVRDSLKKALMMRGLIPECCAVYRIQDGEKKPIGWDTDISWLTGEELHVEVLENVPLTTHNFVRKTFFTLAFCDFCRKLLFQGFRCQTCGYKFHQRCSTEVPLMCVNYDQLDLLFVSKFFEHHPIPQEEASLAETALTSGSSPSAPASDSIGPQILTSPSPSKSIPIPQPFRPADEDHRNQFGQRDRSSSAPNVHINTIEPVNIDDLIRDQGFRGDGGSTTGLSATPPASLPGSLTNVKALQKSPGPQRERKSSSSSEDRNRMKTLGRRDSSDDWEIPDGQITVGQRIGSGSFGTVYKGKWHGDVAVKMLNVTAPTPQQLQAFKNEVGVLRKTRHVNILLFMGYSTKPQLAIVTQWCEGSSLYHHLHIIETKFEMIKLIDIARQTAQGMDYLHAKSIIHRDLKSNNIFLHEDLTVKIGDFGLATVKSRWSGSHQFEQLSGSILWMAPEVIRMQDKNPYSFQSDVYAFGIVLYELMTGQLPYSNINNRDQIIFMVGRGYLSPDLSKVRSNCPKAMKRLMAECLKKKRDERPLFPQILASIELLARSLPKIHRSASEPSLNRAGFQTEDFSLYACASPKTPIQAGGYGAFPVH
BRAF V600E, sequence (P15056 whole entry V600E): as the sequence (P15056 whole entry) above, with V600E counted along it

On to `O=C(Nc1ccc(Cl)cc1)Nc1cccc(Oc2ccc3ncc(N4CCNCC4)nc3c2)c1` [Compound C051, 1-(4-chlorophenyl)-3-(3-((3-(piperazin-1-yl)quinoxalin-6-yl)oxy)phenyl)urea], for which the inhibition at 1 µM on BRAF, at KDR (VEGFR2) and on BRAF V600E was above 89% each time. In the experiment with A549 cells, the half-inhibitory concentration (IC50) is 2 to 5 µM.
`O=C(Nc1ccc(Cl)c(F)c1)Nc1ccc(F)c(Oc2ccc3ncc(N4CCNCC4)nc3c2)c1` [Compound C068, 1-(4-chloro-3-fluorophenyl)-3-(4-fluoro-3-((3-(piperazin-1-yl)quinoxalin-6-yl)oxy)phenyl)urea]: the values for the inhibition at 1 µM on BRAF, on KDR (VEGFR2) and on BRAF V600E were above 89%, 70 to 89% and above 89%, respectively. This molecule also came in with an IC50 in the experiment with A549 cells below 2 µM.
In the case of `O=C(Nc1cc(F)cc(F)c1)Nc1cccc(Oc2ccc3ncc(N4CCNCC4)nc3c2)c1` [Compound C039, 1-(3,5-difluorophenyl)-3-(3-((3-(piperazin-1-yl)quinoxalin-6-yl)oxy)phenyl)urea], the figures for the inhibition at 1 µM at BRAF, at KDR (VEGFR2) and at BRAF V600E were above 89%, 70 to 89% and above 89%, respectively. The IC50 in the experiment on A549 cells is above 5 µM.
On to `O=C(Nc1cccc(F)c1)Nc1ccc(F)c(Oc2ccc3ncc(N4CCNCC4)nc3c2)c1` [Compound C059, 1-(4-fluoro-3-((3-(piperazin-1-yl)quinoxalin-6-yl)oxy)phenyl)-3-(3-fluorophenyl)urea], for which the inhibition at 1 µM against BRAF is above 89%; on KDR (VEGFR2), 70 to 89%; at BRAF V600E, above 89%. Moreover, in the experiment with A549 cells, the IC50 lay within 2 to 5 µM.
In the case of `O=C(Nc1ccc(F)cc1)Nc1cccc(Oc2ccc3ncc(N4CCNCC4)nc3c2)c1` [Compound C038, 1-(4-fluorophenyl)-3-(3-((3-(piperazin-1-yl)quinoxalin-6-yl)oxy)phenyl)urea], the inhibition at 1 µM against BRAF, on KDR (VEGFR2) and on BRAF V600E was above 89% each time. In the experiment on A549 cells, the IC50 was above 5 µM.
For the molecule `O=C(Nc1cccc(Cl)c1)Nc1ccc(F)c(Oc2ccc3ncc(N4CCNCC4)nc3c2)c1` [Compound C063, 1-(3-chlorophenyl)-3-(4-fluoro-3-((3-(piperazin-1-yl)quinoxalin-6-yl)oxy)phenyl)urea], the inhibition at 1 µM at BRAF, at KDR (VEGFR2) and at BRAF V600E was above 89% throughout. The molecule also came in with an IC50 with A549 cells of 2 to 5 µM.
`O=C(Nc1cccc(C(F)(F)F)c1)Nc1ccc(F)c(Oc2ccc3ncc(N4CCNCC4)nc3c2)c1` [Compound C065, 1-(4-fluoro-3-((3-(piperazin-1-yl)quinoxalin-6-yl)oxy)phenyl)-3-(3-(trifluoromethyl)phenyl)urea]: the inhibition at 1 µM on BRAF, at KDR (VEGFR2) and at BRAF V600E was above 89% each time. In the experiment with A549 cells, this molecule registered an IC50 of 2 to 5 µM.
Consider `O=C(Nc1cccc(Cl)c1)Nc1cccc(Oc2ccc3ncc(N4CCNCC4)nc3c2)c1` [Compound C050, 1-(3-chlorophenyl)-3-(3-((3-(piperazin-1-yl)quinoxalin-6-yl)oxy)phenyl)urea], for which the inhibition at 1 µM against BRAF, at KDR (VEGFR2) and on BRAF V600E was above 89% in each case. This molecule displayed an IC50 with A549 cells of 2 to 5 µM.
For the molecule `O=C(Nc1ccc(F)cc1)Nc1ccc(F)c(Oc2ccc3ncc(N4CCNCC4)nc3c2)c1` [Compound C060, 1-(4-fluoro-3-((3-(piperazin-1-yl)quinoxalin-6-yl)oxy)phenyl)-3-(4-fluorophenyl)urea], the inhibition at 1 µM at BRAF, at KDR (VEGFR2) and at BRAF V600E was above 89% in each case. This molecule also returned a half-maximal inhibitory concentration (IC50) in the experiment on A549 cells of 2 to 5 µM.
For `O=C(Nc1ccc(F)c(F)c1)Nc1ccc(F)c(Oc2ccc3ncc(N4CCNCC4)nc3c2)c1` [Compound C061, 1-(3,4-difluorophenyl)-3-(4-fluoro-3-((3-(piperazin-1-yl)quinoxalin-6-yl)oxy)phenyl)urea], the inhibition at 1 µM against BRAF was above 89%; at KDR (VEGFR2), 70 to 89%; on BRAF V600E, above 89%. For the same molecule, the IC50 with A549 cells was above 5 µM.
Regarding `O=C(Nc1cc(F)cc(F)c1)Nc1ccc(F)c(Oc2ccc3ncc(N4CCNCC4)nc3c2)c1` [Compound C062, 1-(3,5-difluorophenyl)-3-(4-fluoro-3-((3-(piperazin-1-yl)quinoxalin-6-yl)oxy)phenyl)urea], the figures for the inhibition at 1 µM at BRAF, at KDR (VEGFR2) and at BRAF V600E were above 89%, 70 to 89% and above 89%, respectively. The IC50 with A549 cells is 2 to 5 µM.
As for `O=C(Nc1cccc(Oc2ccc3ncc(N4CCNCC4)nc3c2)c1)Nc1ccc(F)c(F)c1` [Compound C036, 1-(3,4-difluorophenyl)-3-(3-((3-(piperazin-1-yl)quinoxalin-6-yl)oxy)phenyl)urea], the inhibition at 1 µM on BRAF, on KDR (VEGFR2) and at BRAF V600E was above 89% each time. Besides, the IC50 in the experiment with A549 cells was above 5 µM.
Consider `O=C(Nc1cccc(Oc2ccc3ncc(N4CCNCC4)nc3c2)c1)Nc1ccc(Cl)c(C(F)(F)F)c1` [Compound C041, 1-(4-chloro-3-(trifluoromethyl)phenyl)-3-(3-((3-(piperazin-1-yl)quinoxalin-6-yl)oxy)phenyl)urea], for which the inhibition at 1 µM at BRAF, at KDR (VEGFR2) and at BRAF V600E was above 89% throughout. The same molecule showed an IC50 with A549 cells below 2 µM.
As for `O=C(Nc1cc(F)cc(Oc2ccc3ncc(N4CCOCC4)nc3c2)c1)c1cccc(F)c1` [Compound C027, 3-fluoro-N-(3-fluoro-5-((3-morpholinoquinoxalin-6-yl)oxy)phenyl)benzamide], the IC50 was 1 to 5 µM in the experiment with A375 cells and above 5 µM in the experiment on A549 cells. Also, the inhibition at 1 µM at KDR (VEGFR2) and at BRAF V600E was 70 to 89% in each case.
Regarding `O=C(Nc1ccc(F)c(Oc2ccc3ncc(N4CCOCC4)nc3c2)c1)Nc1ccc(Cl)c(C(F)(F)F)c1` [Compound C009, 1-(4-chloro-3-(trifluoromethyl)phenyl)-3-(4-fluoro-3-((3-morpholinoquinoxalin-6-yl)oxy)phenyl)urea], the IC50 in the experiment with A375 cells is below 1 µM; on KDR (VEGFR2) it was above 0.1 µM; against BRAF V600E, above 0.1 µM; in the experiment with A549 cells, below 2 µM. For the same molecule, the inhibition at 1 µM was above 89% on KDR (VEGFR2) and below 70% at BRAF V600E.
For the molecule `O=C(Nc1ccc(Cl)c(C(F)(F)F)c1)Nc1ccc(Oc2ccc3nccnc3c2)cc1F` [Compound C095, 1-(4-chloro-3-(trifluoromethyl)phenyl)-3-(2-fluoro-4-(quinoxalin-6-yloxy)phenyl)urea], the IC50 was above 5 µM in the experiment with A375 cells and 2 to 5 µM in the experiment with A549 cells. Further, the inhibition at 1 µM at KDR (VEGFR2) is 70 to 89%; at BRAF V600E it was below 70%.
With `O=C(Nc1ccc(Oc2ccc3ncc(N4CCOCC4)nc3c2)cc1)Nc1ccc(Cl)c(C(F)(F)F)c1` [Compound C084, 1-(4-chloro-3-(trifluoromethyl)phenyl)-3-(4-((3-morpholinoquinoxalin-6-yl)oxy)phenyl)urea], the results for the IC50 in the experiment with A375 cells and with A549 cells were 1 to 5 µM and 2 to 5 µM, respectively. Also, the inhibition at 1 µM at KDR (VEGFR2) is above 89%; at BRAF V600E it was 70 to 89%.
